pKd: −log10 of the molar value.
Biological target: T1, CLOCK PAS–A (murine CLOCK PAS-A domain, mCLOCK) (Mus musculus, UniProt O08785)
T1 sequence (O08785 103-265): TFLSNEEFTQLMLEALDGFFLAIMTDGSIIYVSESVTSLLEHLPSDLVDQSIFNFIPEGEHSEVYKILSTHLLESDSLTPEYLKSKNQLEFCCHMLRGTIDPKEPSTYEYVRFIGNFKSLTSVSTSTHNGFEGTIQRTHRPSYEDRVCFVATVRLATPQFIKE
Test: UV-visible spectrophotometric titration, global nonlinear least squares fit
Assay type: binding

pKd: 5.98
SMILES: C=CC1=C(C)C2=Cc3c(C=C)c(C)c4[n]3[Fe]([Cl])[n]3c(c(C)c(CCC(=O)O)c3=CC3=NC(=C4)C(C)=C3CCC(=O)O)=CC1=N2 [hemin]

Source: article PMC2920140 (Inorganic chemistry, 2010)
